These compounds were tested against PD-1/PD-L1 interaction (PD-1-Ig / PD-L1-His) (Homo sapiens (Human), UniProt Q9NZQ7) (assay: PD-1/PD-L1 Homogenous Time-Resolved Fluorescence (HTRF) binding assay). Settings: PD-1/PD-L1 HTRF binding assay; value given as range class; read-out: Range or IC50.
In short: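 HTRF detection used 1 nM europium-cryptate anti-Ig and 20 nM APC anti-His. Compounds first saw 10 nM PD-L1-His for 15 min, and 20 nM PD-1-Ig was then added for another 15 min. Buffer was dPBS plus 0.1% BSA and 0.05% Tween-20. All concentrations are final.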

PD-1/PD-L1 interaction (PD-1-Ig / PD-L1-His), sequence (Q9NZQ7 other isoform, or with tags, fused parts or gaps): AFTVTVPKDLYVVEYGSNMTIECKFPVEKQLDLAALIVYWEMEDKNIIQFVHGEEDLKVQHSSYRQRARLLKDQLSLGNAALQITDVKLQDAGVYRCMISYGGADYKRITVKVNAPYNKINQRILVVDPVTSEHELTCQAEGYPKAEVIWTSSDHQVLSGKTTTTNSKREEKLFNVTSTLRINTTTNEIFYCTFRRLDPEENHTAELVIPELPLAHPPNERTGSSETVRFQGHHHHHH

| Structure (SMILES) | IC50 [nM] |
| --- | --- |
| N#Cc1cccc(COc2cc(OCc3cccc(-c4ccc5c(c4)OCCO5)c3Cl)ccc2CN[C@H](CO)C(=O)O)c1 [Example 1146, (R)-2-(4-(2-chloro-3-(2,3-dihydrobenzo[b][1,4]dioxin-6-yl)benzyloxy)-2-(3-cyanobenzyloxy)benzylamino)-3-hydroxypropanoic acid] | 0.6 to 10 |
| N#Cc1cccc(COc2cc(OCc3cccc(-c4ccc5c(c4)OCCO5)c3Cl)ccc2CNC[C@@H](O)CC(=O)O)c1 [Example 1147, (S)-4-(4-(2-chloro-3-(2,3-dihydrobenzo[b][1,4]dioxin-6-yl)benzyloxy)-2-(3-cyanobenzyloxy)benzylamino)-3-hydroxybutanoic acid] | 0.6 to 10 |
| C[C@](CO)(NCc1ccc(OCc2cccc(-c3ccc4c(c3)OCCO4)c2Cl)cc1OCc1cccc(C#N)c1)C(=O)O [Example 1148, (R)-2-(4-(2-chloro-3-(2,3-dihydrobenzo[b][1,4]dioxin-6-yl)benzyloxy)-2-(3-cyanobenzyloxy)benzylamino)-3-hydroxy-2-methylpropanoic acid] | 0.6 to 10 |
| C[C@@](CO)(NCc1ccc(OCc2cccc(-c3ccc4c(c3)OCCO4)c2Cl)cc1OCc1cccc(C#N)c1)C(=O)O [Example 1149, (S)-2-(4-(2-chloro-3-(2,3-dihydrobenzo[b][1,4]dioxin-6-yl)benzyloxy)-2-(3-cyanobenzyloxy)benzylamino)-3-hydroxy-2-methylpropanoic acid] | 0.6 to 10 |
| CC(=O)NCCNCc1ccc(OCc2cccc(-c3ccc4c(c3)OCCO4)c2Cl)cc1OCc1cccc(C#N)c1 [Example 1150, N-(2-(4-(2-chloro-3-(2,3-dihydrobenzo[b][1,4]dioxin-6-yl)benzyloxy)-2-(3-cyanobenzyloxy)benzylamino)ethyl)acetamide] | 10 to 100 |

Other lines, results leading:

| IC50 [nM] | Structure (SMILES) |
| --- | --- |
| 0.6 to 10 | Cc1cc(CNCCO)c(OCc2cncc(C#N)c2)cc1OCc1cccc(-c2ccc3c(c2)OCCO3)c1Cl [Example 1151, 5-((5-(2-chloro-3-(2,3-dihydrobenzo[b][1,4]dioxin-6-yl)benzyloxy)-2-((2-hydroxyethylamino)methyl)-4-methylphenoxy)methyl)nicotinonitrile] |
| 0.6 to 10 | Cc1cc(CN2CCCC[C@H]2C(=O)O)c(OCc2cncc(C#N)c2)cc1OCc1cccc(-c2ccc3c(c2)OCCO3)c1Cl [Example 1152, (S)-1-(4-(2-chloro-3-(2,3-dihydrobenzo[b][1,4]dioxin-6-yl)benzyloxy)-2-((5-cyanopyridin-3-yl)methoxy)-5-methylbenzyl)piperidine-2-carboxylic acid] |
| 0.6 to 10 | Cc1cc(CN[C@H](CO)C(=O)O)c(OCc2cncc(C#N)c2)cc1OCc1cccc(-c2ccc3c(c2)OCCO3)c1Cl [Example 1153, (R)-2-(4-(2-chloro-3-(2,3-dihydrobenzo[b][1,4]dioxin-6-yl)benzyloxy)-2-((5-cyanopyridin-3-yl)methoxy)-5-methylbenzylamino)-3-hydroxypropanoic acid] |
| 0.6 to 10 | Cc1cc(CN[C@@](C)(CO)C(=O)O)c(OCc2cncc(C#N)c2)cc1OCc1cccc(-c2ccc3c(c2)OCCO3)c1Cl [Example 1154, (S)-2-(4-(2-chloro-3-(2,3-dihydrobenzo[b][1,4]dioxin-6-yl)benzyloxy)-2-((5-cyanopyridin-3-yl)methoxy)-5-methylbenzylamino)-3-hydroxy-2-methylpropanoic acid] |
| 0.6 to 10 | Cc1cc(CN2CCCC[C@@H]2C(=O)O)c(OCc2cncc(C#N)c2)cc1OCc1cccc(-c2ccc3c(c2)OCCO3)c1Cl [Example 1155, (R)-1-(4-(2-chloro-3-(2,3-dihydrobenzo[b][1,4]dioxin-6-yl)benzyloxy)-2-((5-cyanopyridin-3-yl)methoxy)-5-methylbenzyl)piperidine-2-carboxylic acid] |
| 0.6 to 10 | Cc1cc(CN[C@](C)(CO)C(=O)O)c(OCc2cncc(C#N)c2)cc1OCc1cccc(-c2ccc3c(c2)OCCO3)c1Cl [Example 1156, (R)-2-(4-(2-chloro-3-(2,3-dihydrobenzo[b][1,4]dioxin-6-yl)benzyloxy)-2-((5-cyanopyridin-3-yl)methoxy)-5-methylbenzylamino)-3-hydroxy-2-methylpropanoic acid] |

From patent US9850225B2, “Compounds useful as immunomodulators” (BRISTOL-MYERS SQUIBB COMPANY, priority 2014, dated 2017)
